From PubChem BioAssay (NCI)
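Cultured in 96-well plates, cells were exposed to test compound for 48 hours across five concentrations. GI50 is the concentration that inhibits growth by half. TGI marks complete inhibition of growth.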

Key:
Test in all cases: NCI tumour cell line growth inhibition, 48 h
786-0 renal = test system: 786-0 renal
A498 renal = test system: A498 renal
A549 NSCLC = test system: A549 NSCLC
ACHN renal = test system: ACHN renal
BT-549 breast = test system: BT-549 breast
CAKI-1 renal = test system: CAKI-1 renal
CCRF-CEM leukemia = test system: CCRF-CEM leukemia
DU-145 prostate = test system: DU-145 prostate
EKVX NSCLC = test system: EKVX NSCLC
HCC-2998 colon = test system: HCC-2998 colon
HCT-116 colon = test system: HCT-116 colon
HCT-15 colon = test system: HCT-15 colon
HL-60(TB) leukemia = test system: HL-60(TB) leukemia
HOP-62 NSCLC = test system: HOP-62 NSCLC
HOP-92 NSCLC = test system: HOP-92 NSCLC
HS 578T breast = test system: HS 578T breast
IGROV1 ovarian = test system: IGROV1 ovarian
K-562 leukemia = test system: K-562 leukemia
KM12 colon = test system: KM12 colon
LOX IMVI melanoma = test system: LOX IMVI melanoma
M14 melanoma = test system: M14 melanoma
MALME-3M melanoma = test system: MALME-3M melanoma
MCF7 breast = test system: MCF7 breast
MDA-MB-231 breast = test system: MDA-MB-231 breast
MDA-MB-435 = test system: MDA-MB-435
MOLT-4 leukemia = test system: MOLT-4 leukemia
NCI-H226 lung = test system: NCI-H226 lung
NCI-H23 lung = test system: NCI-H23 lung
NCI-H460 lung = test system: NCI-H460 lung
NCI-H522 lung = test system: NCI-H522 lung
NCI/ADR-RES ovarian = test system: NCI/ADR-RES ovarian
OVCAR-3 ovarian = test system: OVCAR-3 ovarian
OVCAR-4 ovarian = test system: OVCAR-4 ovarian
OVCAR-5 ovarian = test system: OVCAR-5 ovarian
OVCAR-8 ovarian = test system: OVCAR-8 ovarian
PC-3 prostate = test system: PC-3 prostate
RPMI-8226 leukemia = test system: RPMI-8226 leukemia
RXF 393 renal = test system: RXF 393 renal
SF-268 CNS = test system: SF-268 CNS
SF-295 CNS = test system: SF-295 CNS
SF-539 CNS = test system: SF-539 CNS
SK-MEL-2 melanoma = test system: SK-MEL-2 melanoma
SK-MEL-5 melanoma = test system: SK-MEL-5 melanoma
SN12C renal = test system: SN12C renal
SR leukemia = test system: SR leukemia
SW-620 colon = test system: SW-620 colon
TK-10 renal = test system: TK-10 renal
U251 CNS = test system: U251 CNS
UACC-257 melanoma = test system: UACC-257 melanoma
UACC-62 melanoma = test system: UACC-62 melanoma
UO-31 renal = test system: UO-31 renal

Compound: COc1ccc2cc(/C=C/C(=O)c3ccc(Cl)cc3Cl)ccc2c1
- GI50 (786-0 renal): 36.7 µM
- TGI (786-0 renal): > 100 µM
- GI50 (A498 renal): 28.8 µM
- TGI (A498 renal): 58.9 µM
- GI50 (A549 NSCLC): 26 µM
- TGI (A549 NSCLC): > 100 µM
- GI50 (ACHN renal): 35.4 µM
- TGI (ACHN renal): > 100 µM
- GI50 (BT-549 breast): 33 µM
- TGI (BT-549 breast): 96.7 µM
- GI50 (CAKI-1 renal): 42.7 µM
- TGI (CAKI-1 renal): 89.1 µM
- GI50 (CCRF-CEM leukemia): 21 µM
- TGI (CCRF-CEM leukemia): 57.2 µM
- GI50 (DU-145 prostate): 32.6 µM
- TGI (DU-145 prostate): > 100 µM
- GI50 (EKVX NSCLC): 41.7 µM
- TGI (EKVX NSCLC): > 100 µM
- GI50 (HCC-2998 colon): 20.6 µM
- TGI (HCC-2998 colon): 48.8 µM
- GI50 (HCT-116 colon): 16.9 µM
- TGI (HCT-116 colon): 46 µM
- GI50 (HCT-15 colon): 31 µM
- TGI (HCT-15 colon): > 100 µM
- GI50 (HL-60(TB) leukemia): 17.5 µM
- TGI (HL-60(TB) leukemia): 41 µM
- GI50 (HOP-62 NSCLC): 39.3 µM
- TGI (HOP-62 NSCLC): > 100 µM
- GI50 (HOP-92 NSCLC): 97.7 µM
- TGI (HOP-92 NSCLC): > 100 µM
- GI50 (HS 578T breast): 39.3 µM
- TGI (HS 578T breast): > 100 µM
- GI50 (IGROV1 ovarian): 42.9 µM
- TGI (IGROV1 ovarian): > 100 µM
- GI50 (K-562 leukemia): 20.5 µM
- TGI (K-562 leukemia): 68.8 µM
- GI50 (KM12 colon): 29 µM
- TGI (KM12 colon): 85.4 µM
- GI50 (LOX IMVI melanoma): 24.1 µM
- TGI (LOX IMVI melanoma): 60.4 µM
- GI50 (M14 melanoma): 30.5 µM
- TGI (M14 melanoma): > 100 µM
- GI50 (MALME-3M melanoma): 27 µM
- TGI (MALME-3M melanoma): 73.9 µM
- GI50 (MCF7 breast): 4.83 µM
- TGI (MCF7 breast): 43.4 µM
- GI50 (MDA-MB-231 breast): 27.3 µM
- TGI (MDA-MB-231 breast): > 100 µM
- GI50 (MDA-MB-435): 25.4 µM
- TGI (MDA-MB-435): 75.3 µM
- GI50 (MOLT-4 leukemia): 11.3 µM
- TGI (MOLT-4 leukemia): 35.5 µM
- GI50 (NCI-H226 lung): 30.4 µM
- TGI (NCI-H226 lung): > 100 µM
- GI50 (NCI-H23 lung): 47 µM
- TGI (NCI-H23 lung): > 100 µM
- GI50 (NCI-H460 lung): 27.4 µM
- TGI (NCI-H460 lung): > 100 µM
- GI50 (NCI-H522 lung): 21.6 µM
- TGI (NCI-H522 lung): > 100 µM
- GI50 (NCI/ADR-RES ovarian): 31 µM
- TGI (NCI/ADR-RES ovarian): 96.5 µM
- GI50 (OVCAR-3 ovarian): 26.2 µM
- TGI (OVCAR-3 ovarian): > 100 µM
- GI50 (OVCAR-4 ovarian): 74.1 µM
- TGI (OVCAR-4 ovarian): > 100 µM
- GI50 (OVCAR-5 ovarian): 45.7 µM
- TGI (OVCAR-5 ovarian): > 100 µM
- GI50 (OVCAR-8 ovarian): 26.6 µM
- TGI (OVCAR-8 ovarian): 75.4 µM
- GI50 (PC-3 prostate): 44.7 µM
- TGI (PC-3 prostate): > 100 µM
- GI50 (RPMI-8226 leukemia): 16.2 µM
- TGI (RPMI-8226 leukemia): 47.2 µM
- GI50 (RXF 393 renal): 20.4 µM
- TGI (RXF 393 renal): 65.6 µM
- GI50 (SF-268 CNS): 32.9 µM
- TGI (SF-268 CNS): > 100 µM
- GI50 (SF-295 CNS): 83.3 µM
- TGI (SF-295 CNS): > 100 µM
- GI50 (SF-539 CNS): 72.9 µM
- TGI (SF-539 CNS): > 100 µM
- GI50 (SK-MEL-2 melanoma): 24 µM
- TGI (SK-MEL-2 melanoma): 69.9 µM
- GI50 (SK-MEL-5 melanoma): 20.9 µM
- TGI (SK-MEL-5 melanoma): 45.2 µM
- GI50 (SN12C renal): 20.3 µM
- TGI (SN12C renal): 50.9 µM
- GI50 (SR leukemia): 9.19 µM
- TGI (SR leukemia): 28.7 µM
- GI50 (SW-620 colon): 24.1 µM
- TGI (SW-620 colon): 67 µM
- GI50 (TK-10 renal): 77.9 µM
- TGI (TK-10 renal): > 100 µM
- GI50 (U251 CNS): 27.9 µM
- TGI (U251 CNS): > 100 µM
- GI50 (UACC-257 melanoma): 39.5 µM
- TGI (UACC-257 melanoma): > 100 µM
- GI50 (UACC-62 melanoma): 21.6 µM
- TGI (UACC-62 melanoma): 79.4 µM
- GI50 (UO-31 renal): 36.6 µM
- TGI (UO-31 renal): > 100 µM
